Measured values: US8142821B2, “Xanthohumol-enriched hop extract” (Flazan GmbH & Co. KG, priority 2007, dated 2012)
≈ marks a conversion by molar mass, not a printed value.

Legend:
[1] = tested on: K. rhizophila (formerly M. luteus) (ATCC 9341); test: Antimicrobial susceptibility, broth dilution; type: cell-based; details: Kocuria rhizophila, ATCC9341; lowest concentration required to kill
Method: (§1) The antibacterial effects of seven hops components against five different strains of bacteria involved in primary or secondary skin and soft tissue infections was evaluated, with broth dilution methods. […] Antimicrobial susceptibility testing was performed using a broth dilution method. Gentamicin or ampicillin was used as a control to verify the methodology. A stock solution (20 mg/ml) of the test substance (or vehicle control) was prepared in dimethyl sulfoxide. Serial dilution was done in microwell plates. Reinforced Clostridial Medium was used for P. acnes (ATCC 6919). Three hundreds […] of the test substance was added to the test tube containing P. acnes (10^5 CFU/ml) in 2.7 ml of cultures grown under anaerobic conditions. Mueller-Hinston Broth suitable for culturing S. epidermidis (ATCC 12228), K. rhizophila (formerly M. luteus) (ATCC 9341), and S. aureus (ATCC […]), and Brain Heart Infusion Broth suitable for culturing S. pyogenes (ATCC 14289) were used. A total of […] of the test substance was added to the test tube containing the other microorganisms (10^5 CFU/ml) in 0.9 ml of cultures grown under controlled conditions. […] Samples from those tubes that scored positive was plated onto an agar plate and incubated under controlled conditions.

P. acnes (ATCC 6919) = test: Antimicrobial susceptibility, broth dilution; type: cell-based; details: Cutibacterium acnes, ATCC6919; lowest concentration required to kill
Method: as §1

S. aureus (ATCC 6538P) = test: Antimicrobial susceptibility, broth dilution; type: cell-based; details: Staphylococcus aureus, ATCC6538P; lowest concentration required to kill
Method: as §1

[2] = tested on: S. epidermidis (ATCC 12228); test: Antimicrobial susceptibility, broth dilution; type: cell-based; details: Staphylococcus epidermidis, ATCC12228; lowest concentration required to kill
Method: as §1

S. pyogenes (ATCC 14289) = test: Antimicrobial susceptibility, broth dilution; type: cell-based; details: Streptococcus pyogenes, ATCC14289; lowest concentration required to kill
Method: as §1

[3] = ORAC-Total (ORAClipo + ORAChydro); details: among hop components
Method: (§2) In the present work, the ORAC value is expressed as the sum of values of both the water-soluble and fat-soluble parts. Green tea catechins (Polyphenon 60) were used as the control with the highest ORAC value among edible plants. Vitamin C and vitamin E were used as controls for water- and fat-soluble molecules, respectively. Both hydrophilic and lipophilic oxygen radical absorbance capacity (ORAC) assays were carried out at Brunswick Laboratory (Wareham, Mass.) based on the modified ORACfl method reported by Ou et al. (2001 J. Agric. Food Chem. 49: 4619-4626, 2002 J. Agr. Food Chem. 50: 3122-3128). Trolox, a water-soluble vitamin E analog, was used as the calibration standard. The data are expressed as mmole of Trolox equivalents per gram (mmol TE/g). […] Hydroxyl radical ORAC (HOR-AC) is expressed as mmole caffeic acid equivalent per gram (mmol CAE/g). […] The peroxyl nitrite ORAC (NORAC) result is expressed as mmol TE/g. Alpha-tocopherol (vitamin E) was used as the calibration standard, and the singlet oxygen absorbance capacity (SOAC) result is expressed as mmole a-tocopherol equivalent (mmol VtE) per gram (Aubry et al. 1989 J. Org. Chem. 54: 726-728). […] Radical-scavenging activity was measured by the change in absorbance at 517 nm with the DPPH result expressed as mmol TE/g. […] The FRAP result is expressed as mmol TE/g (Ou et al. J. Agric. Food Chem. 49: 4619-4626). […]

SOD antioxidant assay = details: among hop components
[4] = FRAP, ferric reducing antioxidative power; details: among hop components
Method: as §2, with “[table] […] The SOAC scores are not included in this figure;” for “In the present work, the”, “values used are” for “value is expressed as”, “lipophilic and hydrophilic results. For each assay category, scaling was made logarithmic so that” for “values of both”, “plot on” for “water-soluble and fat-soluble parts. Green tea catechins (Polyphenon 60) were used as”, “chart resembles” for “control with”, “associated rating. […] The larger the spatial area, the higher the overall antioxidative capacity. […]” for “highest ORAC value among edible plants. Vitamin C and vitamin E were used as controls for water- and fat-soluble molecules, respectively.”

[5] = HORAC, hydroxyl radical ORAC; details: among hop components
Method: as §2, with “[table] […] The SOAC scores are not included in this figure;” for “In the present work, the”, “values used are” for “value is expressed as”, “lipophilic and hydrophilic results. For each assay category, scaling was made logarithmic so that” for “values of both”, “plot on” for “water-soluble and fat-soluble parts. Green tea catechins (Polyphenon 60) were used as”, “chart resembles” for “control with”, “associated rating. […] The larger the spatial area, the higher the overall antioxidative capacity. […]” for “highest ORAC value among edible plants. Vitamin C and vitamin E were used as controls for water- and fat-soluble molecules, respectively.”

COc1cc(O)c(CC=C(C)C)c(O)c1C(=O)/C=C/c1ccc(O)cc1 [Xanthohumol (7), Xanthohumol]
MBC [1]: 10 µg/mL (≈ 28.2 µM) | MBC (P. acnes (ATCC 6919)): 3 µg/mL (≈ 8.46 µM) | MBC (S. aureus (ATCC 6538P)): 100 µg/mL (≈ 282 µM) | MBC [2]: 10 µg/mL (≈ 28.2 µM) | MBC (S. pyogenes (ATCC 14289)): 3 µg/mL (≈ 8.46 µM) | rank of quenching activity against peroxyl radical (ORAC-total), FIG. 2 [3]: highest quenching activity | rank of quenching activity against superoxide (SOD), FIG. 2 (SOD antioxidant assay): highest quenching activity | rank of quenching activity against ferric ion (FRAP), FIG. 2 [4]: highest quenching activity | rank of quenching activity against hydroxyl radical (HORAC), FIG. 2 [5]: highest quenching activity
